In the supplement of paper PMC10599287:

Experiments:
[1] = compound: CCNC(=O)C#Cc1ccc2c(C(=Nc3ccc(CN(C)C)cc3)c3ccccc3)c(O)[nH]c2c1; test: absolute IC70 (antiproliferative, propidium iodide); higher = less potent; settings: exposure time: 4 days
Description: (§1)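 Modified propidium iodide survival/proliferation assay in 294 human tumor cell lines (2D monolayer for solid tumors, suspension for hematologic lines) after 4 days of continuous exposure to 10 concentrations in half-log steps from 0.001 to 30 µM. Absolute IC70 was fitted by four-parameter nonlinear regression of T/C × 100 (%) values; 30 µM is the top dose.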

GDC-0623 = compound: O=C(NOCCO)c1ccc2cncn2c1Nc1ccc(I)cc1F [GDC-0623]; test: as above; settings: exposure time: 4 days
Description: as §1

Test System	absolute IC70 [1]	absolute IC70 (GDC-0623)
Hs 729	8020 nM	> 30000 nM
GP5d	80.2 nM	> 30000 nM
OVXF_1023	14200 nM	> 30000 nM
K-562	2820 nM	> 30000 nM
IGROV-1	1870 nM	> 30000 nM
LP-1	2160 nM	> 30000 nM
GXF_23132	20600 nM	> 30000 nM
PXF_1752	1860 nM	> 30000 nM
GXA_3067	583 nM	265 nM
HL-60	27 nM	6 nM
KCL-22	250 nM	> 30000 nM
NCI-H2171	24 nM	> 30000 nM
HT-115	14.4 nM	57.6 nM
HPAF-II	285 nM	79 nM
SK-UT-1B	1400 nM	5790 nM
CAL-33	346 nM	517 nM
GXF_251	944 nM	3340 nM
MM.1R	23 nM	> 30000 nM
T47D	6840 nM	> 30000 nM
OCI-LY18	494 nM	> 30000 nM
LXFE_66	3910 nM	> 30000 nM
GXA_3011	97 nM	> 30000 nM

Test System	absolute IC70 [1]	absolute IC70 (GDC-0623)
LXFL_1674	1050 nM	> 30000 nM
SCLC-21H	31 nM	> 30000 nM
UOC-M1	12 nM	> 30000 nM
A-431	30 nM	563 nM
HCT116	51 nM	84 nM
LOVO	3680 nM	> 30000 nM
RAJI	4790 nM	> 30000 nM
Caco-2	4760 nM	> 30000 nM
CNXF_498	5620 nM	> 30000 nM
MEXF_1829	90 nM	19 nM
SNU-475	3550 nM	> 30000 nM
BT-549	1780 nM	> 30000 nM
LEXFAM_2531	26 nM	> 30000 nM
CAL-51	61 nM	> 30000 nM
CAL-27	250 nM	14 nM
PAXF_2035	855 nM	17200 nM
FADU	2260 nM	> 30000 nM
SU-DHL-1	406 nM	> 30000 nM
LXFL_1072	481 nM	16200 nM
MOLM-6	9 nM	41 nM
KYSE-70	1040 nM	> 30000 nM
MOLM-13	8 nM	448 nM

Test System	absolute IC70 [1]	absolute IC70 (GDC-0623)
U-251MG	1180 nM	783 nM
PC-3M	161 nM	> 30000 nM
OVCAR-3	26100 nM	> 30000 nM
RKO	21 nM	125 nM
DMS-273	5120 nM	> 30000 nM
PAXF_1986	414 nM	92 nM
SNU-620	225 nM	> 30000 nM
MEXF_462	25 nM	7170 nM
JIMT-1	1900 nM	> 30000 nM
Saos-2	593 nM	> 30000 nM
IM-9	7 nM	15 nM
H-MESO-1	5670 nM	> 30000 nM
NCI-H322M	391 nM	105 nM
PA-TU-8988T	773 nM	> 30000 nM
OVCAR-5	694 nM	367 nM
SW620	69 nM	10 nM
CXF_1103	11 nM	427 nM
LXFA_586	106 nM	> 30000 nM
MEXF_535	99 nM	5 nM
EFE-184	3950 nM	> 30000 nM
SU-DHL-4	220 nM	> 30000 nM
NCI-H82	2330 nM	> 30000 nM

Test System	absolute IC70 [1]	absolute IC70 (GDC-0623)
DAUDI	10 nM	> 30000 nM
MSTO-211H	494 nM	1480 nM
PAXF_1998	4620 nM	> 30000 nM
NOMO-1	10 nM	> 30000 nM
SW403	841 nM	7.71 nM
NCI-H929	43 nM	10 nM
NCI-H441	1340 nM	> 30000 nM
HEC-1-A	1580 nM	> 30000 nM
MOLM-1	1590 nM	> 30000 nM
MEG-01	20 nM	8 nM
JHH-6	1140 nM	> 30000 nM
RXF_1183	949 nM	102 nM
KYSE-180	1000 nM	> 30000 nM
BT-474	4060 nM	> 30000 nM
DIFI	91 nM	522 nM
LN-229	281 nM	102 nM
LIM2405	31.6 nM	5.96 nM
KLE	5420 nM	> 30000 nM
HUT-78	72 nM	> 30000 nM
U-937	348 nM	> 30000 nM
SNU-423	1320 nM	> 30000 nM
GXA_3080	114 nM	117 nM

Test System	absolute IC70 [1]	absolute IC70 (GDC-0623)
HT-29	392 nM	87 nM
FU97	6600 nM	> 30000 nM
COLO-320	2110 nM	> 30000 nM
UXF_1138	6 nM	> 30000 nM
EGI-1	693 nM	> 30000 nM
A427	283 nM	> 30000 nM
HCT-15	1440 nM	> 30000 nM
LXFA_629	750 nM	> 30000 nM
LXFL_529	329 nM	233 nM
SNU-899	515 nM	35 nM
RXF_1781	309 nM	7380 nM
SNU-739	1380 nM	> 30000 nM
RAMOS	507 nM	> 30000 nM
SK-OV-3	13400 nM	> 30000 nM
SW1710	525 nM	3740 nM
TK10	873 nM	> 30000 nM
SW579	279 nM	204 nM
RPMI-2650	2150 nM	> 30000 nM
MCF7	281 nM	> 30000 nM
SF295	8840 nM	> 30000 nM
LXFA_983	202 nM	18500 nM
BXF_5637	20 nM	359 nM
